Data on 20 molecules can be found in US8546608B2, “Proteasome inhibitors and methods of using the same” (Cephalon, Inc., priority 2003, dated 2013).

The target in assay [1] is T1, 20S Human Erythrocyte Proteasome (HEP) (Homo sapiens, UniProt P20618+P28074).
T1 construct: 20S Human Erythrocyte Proteasome (HEP), purchased from Immatics Biotechnologies Inc; purchased Immatics Biotechnologies Inc., Tübingen, Germany; host or cells: human erythrocytes (natural source)
The assay can be described thus: Chymotrypsin-like activity of 20S Human Erythrocyte Proteasome (HEP), IC50 determination. It is filed as biochemical. The settings on record: assay of Example C, inhibition of HEP. A digest of the protocol:
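20S proteasome at 0.2 μg/mL (about 0.6 nM catalytic sites) in 20 mM Tris with 0.04% SDS, preincubated 15 min at 37° C with inhibitor before Suc-LLVY-AMC (100 μM final). AMC fluorescence read in the linear range; triplicates, IC50 from concentration series.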

Assay [2] addresses T2, proteasome in Molt-4 cells (human leukemia) (Homo sapiens, UniProt P20618+P28074).
T2 sequence (P28074 60-263): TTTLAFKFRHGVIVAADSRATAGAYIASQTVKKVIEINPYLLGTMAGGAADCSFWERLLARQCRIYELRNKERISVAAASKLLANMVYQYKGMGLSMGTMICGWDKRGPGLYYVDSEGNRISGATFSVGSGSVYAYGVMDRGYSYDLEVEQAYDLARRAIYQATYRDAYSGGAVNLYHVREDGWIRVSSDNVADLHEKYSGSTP
T2 sequence (P20618 29-241): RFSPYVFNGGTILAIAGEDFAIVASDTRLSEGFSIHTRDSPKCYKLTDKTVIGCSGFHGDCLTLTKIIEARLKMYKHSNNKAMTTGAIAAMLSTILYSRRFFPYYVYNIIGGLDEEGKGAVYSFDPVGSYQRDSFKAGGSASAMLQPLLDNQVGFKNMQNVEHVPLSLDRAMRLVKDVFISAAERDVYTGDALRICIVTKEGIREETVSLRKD
Format: cell-based. The conditions noted are these: assay of Example E, inhibition of MOLT4; read-out: MOLT4 (EC50). A digest of the protocol: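 Intact Molt-4 cells (6×10^6 cells/mL) in HEPES-buffered saline were preincubated with inhibitor 15 min at 37 °C, then given cell-permeable MeOSuc-FLF-AFC at 25 μM final.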

`CCCCc1ccc(C(=O)N[C@@H](CCCNC(=N)N[N+](=O)[O-])C(=O)N[C@@H](CC(C)C)B2O[C@@H]3C[C@@H]4C[C@@H](C4(C)C)[C@]3(C)O2)cc1` [D.1.4, 4-Butylbenzamide,N-[(1S)-1-[[[(1R)-1-[(3aS,4S,6S,7aR)-hexahydro-3a,5,5-trimethyl-4,6-methano-1,3,2-benzodioxaborol-2-yl]-3-methylbutyl]amino]carbonyl]-4-[[imino(nitroamino)methyl]amino]butyl]] came in with an IC50 in assay [1] of less than 10 nM. Besides, in assay [2], the EC50 is less than 200 nM.
The like results for `CC(C)C[C@H](NC(=O)[C@H](CCCNC(=N)N[N+](=O)[O-])NC(=O)c1ccoc1)B(O)O` [E.2.28, Boronic acid, [(1R)-1-[[(2S)-5-[[imino(nitroamino)methyl]amino]-2-[(furan-3-carbonyl)amino]-1-oxopentyl]amino]-3-methylbutyl]] were, in that order, less than 10 nM and greater than 10000 nM.
The like results for `COc1ccccc1/C=C/C(=O)N[C@@H](CCCNC(=N)N[N+](=O)[O-])C(=O)N[C@@H](CC(C)C)B(O)O` [D.7.1, Boronic acid, [(1R)-1-[[(2S)-5-[[imino(nitroamino)methyl]amino]-2-[[(2E)-3-(2-methoxyphenyl)-1-oxoprop-2-enyl]amino]-1-oxopentyl]amino]-3-methylbutyl]] were, in that order, less than 10 nM and 2000 to 10000 nM.
`CCCCOCC(=O)N[C@@H](CCCNC(=N)N[N+](=O)[O-])C(=O)N[C@@H](CC(C)C)B1O[C@@H]2C[C@@H]3C[C@@H](C3(C)C)[C@]2(C)O1` [D.2.3, 2-Butoxyacetamide,N-[(1S)-1-[[[(1R)-1-[(3aS,4S,6S,7aR)-hexahydro-3a,5,5-trimethyl-4,6-methano-1,3,2-benzodioxaborol-2-yl]-3-methylbutyl]amino]carbonyl]-4-[[imino(nitroamino)methyl]amino]butyl]]: the IC50 in assay [1] was less than 10 nM. The EC50 in assay [2] was less than 200 nM.
The molecule `CC(C)C[C@H](NC(=O)[C@H](CCCNC(=N)N[N+](=O)[O-])NC(=O)CCCCCCCCCO)B1O[C@@H]2C[C@@H]3C[C@@H](C3(C)C)[C@]2(C)O1` [D.3.133, 10-Hydroxydecanamide,N-[(1S)-1-[[[(1R)-1-[(3aS,4S,6S,7aR)-hexahydro-3a,5,5-trimethyl-4,6-methano-1,3,2-benzodioxaborol-2-yl]-3-methylbutyl]amino]carbonyl]-4-[[imino(nitroamino)methyl]amino]butyl]] had an IC50 in assay [1] of less than 10 nM. The EC50 in assay [2] lay in the range of 200 to 2000 nM.
The like results for `CC(C)C[C@H](NC(=O)[C@H](CCCNC(=N)N[N+](=O)[O-])NC(=O)c1ccc2ccccc2c1)B1O[C@@H]2C[C@@H]3C[C@@H](C3(C)C)[C@]2(C)O1` [D.1.1, Naphthalen-2-carboxamide,N-[(1S)-1-[[[(1R)-1-[(3aS,4S,6S,7aR)-hexahydro-3a,5,5-trimethyl-4,6-methano-1,3,2-benzodioxaborol-2-yl]-3-methylbutyl]amino]carbonyl]-4-[[imino(nitroamino)methyl]amino]butyl]] were, in that order, less than 10 nM and less than 200 nM.
The like results for `CCCCCCCCCC(=O)N[C@@H](CNC(=O)c1ccc(C)cc1)C(=O)N[C@@H](CC(C)C)B(O)O` [E.1.16, Boronic acid, [(1R)-1-[[(2S)-3-[(4-methylbenzoyl)amino]-2-[(decanoylamino)]-1-oxopropyl]amino]-3-methylbutyl]] were, in that order, less than 10 nM and less than 200 nM.
The molecule `CC(C)C[C@H](NC(=O)[C@H](CCCNC(=N)N[N+](=O)[O-])NC(=O)CCCCCCC(=O)c1ccccc1)B(O)O` [E.2.57, Boronic acid, [(1R)-1-[[(2S)-5-[[imino(nitroamino)methyl]amino]-2-[(8-oxo-8-phenyloctanoyl)amino]-1-oxopentyl]amino]-3-methylbutyl]] displayed an IC50 in assay [1] of less than 10 nM. The EC50 in assay [2] was 2000 to 10000 nM.
The like results for `CCCCN1CCC(CCCC(=O)N[C@@H](CCCNC(=N)N[N+](=O)[O-])C(=O)N[C@@H](CC(C)C)B2O[C@@H]3C[C@@H]4C[C@@H](C4(C)C)[C@]3(C)O2)CC1` [D.2.2, 4-(1-Butyl-piperidin-4-yl)-butanamide,N-[(1S)-1-[[[(1R)-1-[(3aS,4S,6S,7aR)-hexahydro-3a,5,5-trimethyl-4,6-methano-1,3,2-benzodioxaborol-2-yl]-3-methylbutyl]amino]carbonyl]-4-[[imino(nitroamino)methyl]amino]butyl]] were, in that order, less than 10 nM and greater than 10000 nM.
`CC(C)C[C@H](NC(=O)[C@H](CCCN/C(N)=N/[N+](=O)[O-])NC(=O)C(CCCCCCCCN1C(=O)c2ccccc2C1=O)C1CCCC1)B(O)O` (stereo partly shown) [E.1.21] had an IC50 in assay [1] of less than 10 nM. Moreover, the EC50 in assay [2] was less than 200 nM.
Consider `CCCCc1ccc(C(=O)N[C@@H](CNC(=O)c2ccc(C)cc2)C(=O)N[C@@H](CC(C)C)B(O)O)cc1` [E.5.5], for which, in assay [1], the IC50 is less than 10 nM. Further, in assay [2], the EC50 is less than 200 nM.
For the molecule `CC(C)C[C@H](NC(=O)[C@H](CCCNC(=N)N[N+](=O)[O-])NC(=O)CCCc1cccs1)B(O)O` [D.7.19, Boronic acid, [(1R)-1-[[(2S)-5-[[imino(nitroamino)methyl]amino]-2-[[4-(thiophen-2-yl)butanoyl]amino]-1-oxopentyl]amino]-3-methylbutyl]], the IC50 in assay [1] is less than 10 nM. The concentration for a half-maximal effect (EC50) in assay [2] fell in the range of 2000 to 10000 nM.
On to `CCCCc1ccc(C(=O)N[C@H](CNC(=O)c2ccc(C)cc2)C(=O)N[C@@H](CC(C)C)B(O)O)cc1` [E.5.41], for which the IC50 in assay [1] was less than 100 nM. The EC50 in assay [2] is less than 200 nM.
The like results for `CCc1ccc(CCC(=O)N[C@@H](CCCNC(=N)N[N+](=O)[O-])C(=O)N[C@@H](CC(C)C)B(O)O)cc1` [E.2.78, Boronic acid, [(1R)-1-[[(2S)-5-[[imino(nitroamino)methyl]amino]-2-[[3-(4-ethylphenyl)propanoyl]amino]-1-oxopentyl]amino]-3-methylbutyl]] were, in that order, less than 10 nM and 2000 to 10000 nM.
The like results for `CC[C@@H](C(=O)N[C@@H](CCCNC(=N)N[N+](=O)[O-])C(=O)N[C@@H](CC(C)C)B(O)O)c1ccccc1` [E.2.4, Boronic acid, [(1R)-1-[[(2S)-5-[[imino(nitroamino)methyl]amino]-2-[((2R)-2-phenylbutanoyl)amino]-1-oxopentyl]amino]-3-methylbutyl]] were, in that order, less than 10 nM and greater than 10000 nM.
The like results for `CCCCCCCCCCCC(=O)N[C@@H](CCCNC(=N)N[N+](=O)[O-])C(=O)N[C@@H](CC(C)C)B1O[C@@H]2C[C@@H]3C[C@@H](C3(C)C)[C@]2(C)O1` [D.3.7, Dodecanamide,N-[(1S)-1-[[[(1R)-1-[(3aS,4S,6S,7aR)-hexahydro-3a,5,5-trimethyl-4,6-methano-1,3,2-benzodioxaborol-2-yl]-3-methylbutyl]amino]carbonyl]-4-[[imino(nitroamino)methyl]amino]butyl]] were, in that order, less than 10 nM and less than 200 nM.
In assay [1], `CC(C)C[C@H](NC(=O)[C@H](CCCNC(=N)N[N+](=O)[O-])NC(=O)C1CCCCC1C)B(O)O` (stereo partly drawn) [E.2.20, Boronic acid, [(1R)-1-[[(2S)-5-[[imino(nitroamino)methyl]amino]-2-[(2-methylcyclohexanecarbonyl)amino]-1-oxopentyl]amino]-3-methylbutyl]] had an IC50 of less than 10 nM. Also, the EC50 in assay [2] lay within 2000 to 10000 nM.
The like results for `CC(C)C[C@H](NC(=O)[C@H](CCCNC(=N)N[N+](=O)[O-])NC(=O)CCCC(=O)c1ccccc1)B1O[C@@H]2C[C@@H]3C[C@@H](C3(C)C)[C@]2(C)O1` [D.3.105, 5-Oxo-5-phenyl-pentanamide,N-[(1S)-1-[[[(1R)-1-[(3aS,4S,6S,7aR)-hexahydro-3a,5,5-trimethyl-4,6-methano-l,3,2-benzodioxaborol-2-yl]-3-methylbutyl]amino]carbonyl]-4-[[imino(nitroamino)methyl]amino]butyl]] were, in that order, less than 10 nM and 200 to 2000 nM.
In turn, `CCSCC(=O)N[C@@H](CCCNC(=N)N[N+](=O)[O-])C(=O)N[C@@H](CC(C)C)B(O)O` [E.2.66, Boronic acid, [(1R)-1-[[(2S)-5-[[imino(nitroamino)methyl]amino]-2-[(2-ethylsulfanylacetyl)amino]-1-oxopentyl]amino]-3-methylbutyl]] displayed an IC50 in assay [1] of less than 10 nM. In addition, in assay [2], the EC50 is greater than 10000 nM.
Molecule `CC(C)C[C@H](NC(=O)[C@H](CCCNC(=N)N[N+](=O)[O-])NC(=O)C1(c2ccccc2)CCCC1)B(O)O` [E.2.3, Boronic acid, [(1R)-1-[[(2S)-5-[[imino(nitroamino)methyl]amino]-2-[(1-phenylcyclopentanecarbnyl)amino]-1-oxopentyl]amino]-3-methylbutyl]] had an IC50 in assay [1] of less than 10 nM. In addition, the EC50 in assay [2] lay within 2000 to 10000 nM.

One may read the IC50 as the concentration that inhibits the measured activity by half. As usually defined, the EC50 is the concentration needed to bring the measured effect to its halfway point.
